Results reported in ChEMBL document CHEMBL1130851, “Synthesis and biological evaluation of a series of 2'-fluorinated-2',3'-dideoxy-2',3'-didehydro-(L)-nucleosides” (Bioorg Med Chem Lett, 1998).

What was measured:
[1] = tested on: Human immunodeficiency virus; experiment: Compound concentration required to inhibit the viral cell proliferation by 50% against HIV; Range = 0.3-0.5; format: functional, organism-based; details: Human immunodeficiency virus 1
CCRF-CEM = experiment: Compound concentration required to inhibit cell growth by 50% against CEM cells; format: functional; details: Homo sapiens, read-out: ID50 (the source's name)
[2] = Compound was tested for anti-HIV activity in MT-2/ IIIB cells and the ratio of the drug concentration (ID50) required to inhibit cell growth was reported.; format: functional, Homo sapiens
Hepatitis B virus = experiment: Compound concentration required to inhibit the viral cell proliferation by 50% against HBV; format: functional, organism-based
[3] = tested on: Human immunodeficiency virus; experiment: Compound concentration required to inhibit the viral cell proliferation by 50% against HIV; Range = 0.1-0.2; format: functional, organism-based; details: Human immunodeficiency virus 1
[4] = tested on: Human immunodeficiency virus; experiment: Compound concentration required to inhibit the viral cell proliferation by 50% against HIV; Range = 2-3; format: functional, organism-based; details: Human immunodeficiency virus 1

IC50 (CCRF-CEM) [nM]	SMILES	EC50 [1] [nM]	ID50 ratio [2]	EC50 (Hepatitis B virus) [nM]	EC50 [3] [nM]	EC50 [4] [nM]
7000	Nc1nc(=O)n([C@@H]2C=C[C@H](CO)O2)cc1F [ELVUCITABINE]	–	9	8	100	–
50000	Nc1ccn([C@@H]2CS[C@H](CO)O2)c(=O)n1 [LAMIVUDINE]	–	>100	30	–	2000

SMILES	IC50 (CCRF-CEM) [nM]	EC50 [1] [nM]	ID50 ratio [2]	EC50 (Hepatitis B virus) [nM]	EC50 [3] [nM]	EC50 [4] [nM]
Nc1nc(=O)n([C@@H]2CC[C@H](CO)O2)cc1F	67000	300	>100	36	–	–
